Converted amounts (≈) assume the structure as drawn. Like-named read-outs stand apart in the source and are kept apart here.

The test system of data set [1] is normal breast cells Hs578Bst. As to the kind of experiment: MTT cytotoxicity assay. It is filed as cell-based. Here is the method: (§1) In vitro anti-cancer effects against cancer cells and safety to normal cells of the prodrugs were evaluated by cytotoxicity.
(§2) MDA-MB-231 cells were seeded in a 96-well transparent plate, at a density of 5000 cells/well. […] After 72 h incubation, the plates were washed with HBSS and MTT solution was added. The final concentration of MTT in each well was 0.5 mg/mL. Then 4 h later, the solution on the plate was removed and the content was dissolved with DMSO [33].The absorption was measured at 490 nm and cell viability was calculated, cell viability% = OD of treated cells/OD of untreated cells × 100% [51].
A general note: Tetrazolium assays rely on reduction of a dye to a coloured formazan, in cell work by metabolically active cells.

Data set [2] has as its system breast cancer cells MDA-MB-231. As to the kind of experiment: MTT cytotoxicity assay. It is filed as cell-based. As to conditions: Homo sapiens. Here is the method:
as §1, §2

Data set [3] has as its system ovarian cancer cells A2780. As to the kind of experiment: MTT cytotoxicity assay. It is filed as cell-based. As to conditions: Homo sapiens.
A short description of data set [4]: Log P by miniaturized shake flask method (n-octanol/water). It is filed as physicochemical. As to conditions: shaken 24 h, mean ± SD, n = 4. The method, then:
Log P and was determined by a miniaturized shake flask method. Briefly, the organic phase consisted of n-octanol saturated with water. Respectively, the aqueous phase consisted of water saturated with n-octanol.

Data set [5] relates to MDA-MB-231 cells. As to the kind of experiment: Annexin V-FITC/PI apoptosis assay (flow cytometry). It is filed as cell-based. As to conditions: MDA-MB-231, 1 μM, 24 h. Here is the method: Cell apoptosis was tested by an Annexin V-FITC/PI staining assay and analyzed by flow cytometry, the result is illustrated in Figure 6. According to Figure 6a, the four regions represent different cell stages. Q1 represents necrotic cells ([…]), Q2 and Q3 represent late apoptotic cells (Annexin V+/PI+) and early apoptotic cells (Annexin V+/PI–), and Q4 represents normal cells (Annexin V–/PI–).
MDA-MB-231 cells were seeded in a 6-well transparent plate, at a density of 5 × 10^5 cells/well. […] After 24 h incubation, the cells were harvested by trypsin, washed with HBSS, and 1 mL of binding buffer (containing Annexin V-FITC and PI) was added, final concentration of Annexin V-FITC and PI were both 1 μg/mL [52]. After that, the test system was incubated in the dark for 10 min, then analysis was immediately conducted by flow cytometry. The fluorescence intensity of Annexin V-FITC was measured at an excitation/emission wavelength of 488/530 nm, the fluorescence intensity of PI was measured at an excitation/emission wavelength of 488/617 nm. Each assay was repeated in triplicate.

Data set [6] is described as follows: Solubility measurements in injection media (excess powder, HPLC). It is filed as physicochemical. The note with it: for solubility at 72 h: thermodynamic from solid; for aqueous solubility as times that of the parent drug (PTX): relative to PTX 0.4 μg/mL. The method, then:
The flow rate was 1 mL/min, with the mobile phase starting at 50% acetonitrile and 50% water and transitioning to 60% acetonitrile and 40% water at 13 min, then returning to 50% acetonitrile and 50% water at 25 min. Chromatographic peaks of the three compounds were identified based on their retention times and chromatographic responses. Peak area measurements were utilized to regress calibration curves to determine each compound.
The test system was shaken at 25 °C for 72 h, then centrifugated at 10,000 rpm for 10 min. Each supernate was collected and 0.22 μm filtered off, then determined by HPLC.

The conditions of data set [7]: cited from earlier work.
Data set [8] can be described thus: Solubility of SG-PTX in various formulations (surfactant solutions). It is filed as physicochemical. As to conditions: for solubility at 72 h: 25 °C, aqueous with cosolvent or surfactant or cyclodextrin, thermodynamic from solid, no ethanol, read-out: solubility in formulation. The method, then:
Solubility of SG-PTX in various formulations was tested, SG-PTX was added into formulations with different proportion (v/v) of water and surfactants. These solubility tests were carried out according to the same protocol as aqueous solubility assays.
Solutions of different surfactants (Cremophor EL, Tween-80, and PEG-400) were prepared at different concentrations of 2.5%, 5%, 10%, and 15% (v/v). Excess powder of SG-PTX was added into different formulations, respectively. The test system was shaken at 25 °C for 72 h, then centrifugation at 10,000 rpm for 10 min. Each supernate was collected and 0.22 μm filtered off, then determined by HPLC.

A short description of data set [9]: Solubility of SG-PTX at various pH conditions. It is filed as physicochemical. Here is the method: An aqueous solution of different pH was adjusted by HCl or NaOH, Excess powder of SG-PTX was added to solutions of different pH, respectively. The test system was shaken at 25 °C for 72 h, then centrifugation at 10,000 rpm for 10 min. Each supernate was collected and 0.22 μm filtered off, then determined by HPLC.

Setting [10] is: 25 °C, saline or isotonic, 5% glucose solution, 25 °C, shaken 72 h, mean ± SD, n = 4, read-out: Solubility, 5% Glucose.
Setting [11] is: 25 °C, saline or isotonic, saline, 25 °C, shaken 72 h, mean ± SD, n = 4, read-out: Solubility, Saline.
Where [12] appears, read: 25 °C, water, pure water, 25 °C, shaken 72 h, mean ± SD, n = 4, read-out: Solubility, Pure Water.

A word on the IC50: it is the concentration at which inhibition is half-maximal. As usually defined, the logP is a log measure of how a compound divides between an organic and an aqueous phase. Usually solubility stands for the concentration that dissolves in the medium under given conditions. As to `CC(=O)O[C@H]1C(=O)[C@]2(C)[C@@H](OC(=O)CCC(=O)OC3O[C@H](CO)[C@@H](O)[C@H](O)[C@H]3O)C[C@H]3OC[C@@]3(OC(C)=O)[C@H]2[C@H](OC(=O)c2ccccc2)[C@]2(O)C[C@H](OC(=O)[C@H](OC(=O)CCC(=O)OC3O[C@H](CO)[C@@H](O)[C@H](O)[C@H]3O)[C@@H](NC(=O)c3ccccc3)c3ccccc3)C(C)=C1C2(C)C` (stereo partly shown) [DG-PTX, C7 and C2′-double glycosylated paclitaxel], the IC50 in data set [1] (Hs578Bst, 72 h) was more than 2000 nM; in data set [2] (MDA-MB-231, 72 h), 395 nM; in data set [3] (A2780, 72 h), 1610 nM. The same compound returned a log partition coefficient (logP) at 24 h in [4] of 2.12 ± 0.08. Further, the “total percentage of apoptotic cells (late apoptosis + early apoptosis)” value (“total percentage of apoptotic cells” for short) in [5] stood at 14.6%. Besides, the results for the solubility at 72 h in data set [6] (setting [10]), in data set [6] (setting [11]) and in data set [6] (setting [12]) were 34.8 ± 4.22 µg/mL (≈ 25.2 µM), 36.7 ± 2.05 µg/mL (≈ 26.6 µM) and 39 ± 5.66 µg/mL (≈ 28.3 µM), respectively. Moreover, in data set [6], the “aqueous solubility as times that of the parent drug (PTX)” value was 97.4 times.
In general, Log P refers to a log measure of how a compound divides between an organic and an aqueous phase. On to `CC(=O)O[C@H]1C(=O)[C@@]2(C)[C@H]([C@H](OC(=O)c3ccccc3)[C@]3(O)C[C@H](OC(=O)[C@H](O)[C@@H](NC(=O)c4ccccc4)c4ccccc4)C(C)=C1C3(C)C)[C@]1(OC(C)=O)CO[C@@H]1C[C@@H]2O` [PTX, Paclitaxel, reference compound], for which the “Log P” value in data set [7] was 3.97 [27]. The IC50 in data set [1] (Hs578Bst normal breast cells, 72 h incubation, MTT, read-out: IC50) turned out to be 632 nM; in data set [2] (MDA-MB-231, 72 h incubation, MTT, read-out: IC50), 30.5 nM; in [3] (A2780, 72 h incubation, MTT, read-out: IC50), 194 nM. In addition, the “total percentage of apoptotic cells” value in [5] was 37.5%. For the same compound, the solubility at 72 h is less than 1 µg/mL in data set [6] (5% glucose solution, 25 °C, saline or isotonic, 5% glucose solution, 25 °C, shaken 72 h, mean ± SD, n = 4, read-out: Solubility, 5% Glucose); less than 1 µg/mL in data set [6] (pure water, 25 °C, water, pure water, 25 °C, shaken 72 h, mean ± SD, n = 4, read-out: Solubility, Pure Water); less than 1 µg/mL in data set [6] (saline, 25 °C, saline or isotonic, saline, 25 °C, shaken 72 h, mean ± SD, n = 4, read-out: Solubility, Saline).
As for `CC(=O)O[C@H]1C(=O)[C@@]2(C)[C@H]([C@H](OC(=O)c3ccccc3)[C@]3(O)C[C@H](OC(=O)[C@H](OC(=O)CCC(=O)OC4O[C@H](CO)[C@@H](O)[C@H](O)[C@H]4O)[C@@H](NC(=O)c4ccccc4)c4ccccc4)C(C)=C1C3(C)C)[C@]1(OC(C)=O)CO[C@@H]1C[C@@H]2O` (stereo partly shown) [SG-PTX, C2′-single glycosylated paclitaxel], the solubility at 72 h was 807 µg/mL (≈ 723 µM) in data set [8] (2.5% (v/v) Cremophor EL in water); 468 µg/mL (≈ 419 µM) in [8] (2.5% (v/v) Tween-80 in water); 1320 µg/mL (≈ 1180 µM) in data set [8] (15% (v/v) Cremophor EL in water); 961 µg/mL (≈ 861 µM) in [8] (15% (v/v) Tween-80 in water); approximately 27 µg/mL (≈ 24.2 µM) in [9] (aqueous solution, pH adjusted with HCl or NaOH, aqueous buffer, thermodynamic from solid, pH 9 and pH 10, water and two common injection media, 25 °C); 17.9 ± 0.28 µg/mL (≈ 16 µM) in data set [6] (setting [10]). Besides, the figures for the solubility at 72 h in data set [6] (setting [11]) and in [6] (setting [12]) were 17.83 ± 0.09 µg/mL (≈ 16 µM) and 17.9 µg/mL (≈ 16 µM), respectively. Further, the solubility in formulation entry in [8] (PEG-400 in water, compared with Cremophor EL and Tween-80) is reported as “the lowest”. Moreover, the IC50 amounted to 1670 nM in data set [1] (Hs578Bst, 72 h); 149 nM in data set [2] (MDA-MB-231, 72 h); 1080 nM in [3] (A2780, 72 h). Further, in data set [9] (pH level of 1 to 8), the “change of solubility with pH” value is reported as “no significant change”. The logP at 24 h in data set [4] was found to be 2.77 ± 0.16. Besides, the “total percentage of apoptotic cells” value in [5] came to 21.23%. The “Solubility, Pure Water” value in data set [6] (pure water, 25 °C, shaken 72 h, mean ± SD, n = 4) was 19.93 ± 4.07 µg/mL (≈ 17.9 µM). Moreover, in [6], the “aqueous solubility as times that of the parent drug (PTX)” value turned out to be 49.8 times.

Source of the values: paper PMC6321537 (Molecules, 2018).
